For one experiment, the system named is aerobically growing Mtb. As to conditions: aerobic growth.
Experiment [1] concerns Mtb in hypoxia-induced growth arrest. The experiment is described as follows: Bactericidal activity of HAB9 in hypoxic growth conditions (variation of the Wayne model).
A further experiment has as its system Mtb. As to conditions: in vitro; cited from earlier work.

Structures are written as SMILES.

For the compound `COc1ccc(-c2cc(=O)c3c(O)cc(OC)cc3o2)cc1` [Compound 1, 5-hydroxy-7-methoxy-2-(4-methoxyphenyl)chromen-4-one], in the experiment on aerobically growing Mtb, the “bactericidal activity against aerobically growing Mtb” value is recorded as “substantially reduced viable cultures of Mtb”. The “bactericidal activity in hypoxia-induced growth arrest” value in experiment [1] (hypoxic, non-replicating Mtb) was “substantially reduced viable cultures of Mtb”. Besides, the “anti-mycobacterial activity in limiting oxygen compared to aerobically grown cells” value in experiment [1] (limiting oxygen versus aerobic) is “enhanced”.
On to `NNC(=O)c1ccncc1` [isoniazid], for which, in the experiment with Mtb, the “activity against Mtb under nutrient starvation or progressive oxygen depletion” value was “little or no activity”.

Values taken from patent publication US20240207219A1, “Artemisia anti-bacterial compositions and methods of use for inhibition of cells of Mycobacterium species” (priority 2022, published 2024).
